Common to all, as to assay: Whole-cell patch-clamp, cultured hippocampal neurons, acute drug application
Holding throughout (format): cell-based, rat

For assay [1], the system named is T1, GABAARs.
T1 construct: DHM-enhanced mIPSCs; other: control (vehicle) cultured neurons, DIV14; other: cultured neurons with EtOH exposure/withdrawal (60 mM, 30 min, 24 hr); EtOH-potentiated mIPSCs; effect on post-synaptic currents (mIPSCs); other: comparative experiments, rat hippocampal slices
The method, then: (§1) Hippocampal neurons from embryonic day 18 rats were prepared by papain dissociation (Worthington Biochemical, Lakewood, N.J.) and cultured in neurobasal medium and B27 supplement (Invitrogen). Cultures were kept at 37° C. in a 5% CO2 humidified incubator as described previously. See Shen, Y., et al. (2011) Mol Pharmacol 79:432-442.
(§2) Hippocampal neurons from embryonic day 18 SD rats were prepared by papain dissociation (Worthington Biochemical, Lakewood, N.J.) and cultured in neurobasal medium (Invitrogen) and B27 supplement as previously reported. See Stowell J N and Craig A M (1999) Neuron 22(3):525-536. Briefly, embryos were removed from maternal rats anesthetized with isoflurane and euthanized by decapitation. Hippocampus were dissected and placed in Ca^2+- and Mg^2+-free HEPES-buffered Hank's buffered salt solution (pH 7.45). Tissues were dissociated by papain digestion followed by trituration through a Pasteur pipette and papain inhibitor treatment. Cells were pelleted and resuspended in neurobasal medium containing 2% B27 serum-free supplement, 100 U/ml penicillin, 100 μg/ml streptomycin, 0.5 mM glutamine (all from Invitrogen), and 10 μM glutamate (Sigma).
(§3) Dissociated neurons were then plated at a density of 0.3×10^5 cells/cm^2 onto 12 mm round coverslips in 24-well plates (for patch-clamp recording) and/or at a density of 0.5×10^5 cells/cm^2 in 6-well plates (for Western blot and biotinylation assays) coated with poly-D-lysine (Sigma, 50 μg/ml). Cultures were kept at 37° C. in a 5% CO2 humidified incubator. Thereafter, one third to half of the medium was replaced twice a week with neurobasal culture medium containing 2% B27 supplement, and 0.5 mM glutamine.
(§4) Control neurons were treated with corresponding vehicle as same procedure as EtOH-treated neurons. The concentration of 60 mM EtOH was selected in view of prior experiments. See Liang J et al (2007). Specifically, the concentration of 60 mM EtOH used to treat cultured neurons was chosen to match blood levels measured in adult rats after intoxication with gavage of 5 g/kg, which produced about 60 mM blood peak plasma [EtOH] lasting for about 2 to 3 hr and induced significant plasticity in GABAARs and tolerance.
(§5) Then, immediately before electrophysiological recording, cells grown on coverslips were transferred to a perfusion chamber (Warner Instruments) and visualized with an inverted microscope (TE200, Nikon). Whole-cell patch-clamp recordings were obtained from cultured neurons under voltage-clamp mode at room temperature (22-25° C.), at a holding potential of −70 mV. Cells were perfused with an extracellular solution (137 mM NaCl, 5 mM KCl, 2 mM CaCl2, 1 mM MgCl2, 20 mM glucose and 10 mM HEPES (310-320 Osm, pH adjusted to 7.40 with NaOH)). Glass pipettes were filled with the same internal solution as that in slice recordings, with an input resistance of 4-7 MΩ. GABAAR-mediated mIPSCs were recorded using the same pharmacological method as mentioned above. […] Electrical signals were amplified using a Multiclamp 200 B amplifier (Molecular Devices, USA). After establishing the whole-cell configuration, at least 10 min were allowed to elapse before the application of drug to allow the membrane patch to stabilize and exchange of ions between the recording electrode and the cytosol to occur. Data were acquired with pClamp software (Version 10.0, Molecular Devices, USA), digitized at 20 kHz (Digidata 1440A, Molecular Devices), and analyzed using the Clampfit software (Version 10.0, Molecular Devices) and the Mini Analysis Program (versions 6.0.7, Synaptosoft, Decatur, Ga.) using methods known in the art. See Hamann M, et al. (2002) Neuron 33(4):625-633; Stell B M and Mody I (2002) J Neurosci 22(10): RC223; and Liang (2007).

Assay [2] has as its system T2, GABAARs.
T2 construct: DHM-enhanced Itonic; EC50 on GABAAR-mediated Itonic; other: control (vehicle) cultured neurons, DIV14; other: cultured neurons with EtOH exposure/withdrawal (60 mM, 30 min, 24 hr); EtOH-potentiated Itonic; GABAAR-mediated Ito
The method, then:
as §1, §2, §3, §4, §5

The test system of assay [3] is T3, GABAARs.
T3 construct: other: in the presence of 60 mM EtOH, rat hippocampal; shift of the GABA concentration-response curve
The conditions noted are these: DHM 0.3 and 1 μM co-applied with GABA (b110 prints 1 M). The method, then:
as §1, §2, §3, §4, §5

Several values for one entry are separate records, joined by “and”; a condition that tells them apart may be missing. Equal values may be shown once. Read-outs that look alike come from different tables or passages of the source.

For the compound `O=C1c2c(O)cc(O)cc2O[C@H](c2cc(O)c(O)c(O)c2)[C@H]1O` [DHM, (2R,3R)-3,5,7-trihydroxy-2-(3,4,5-trihydroxyphenyl)-2,3-dihydrochromen-4-one], the “mIPSCs (area)” value in assay [1] (1 μM DHM, cultured hippocampal neurons) is 181.8±9.2 % of control and 128.2±8.3 % of control. The EC50 in assay [1] (control (vehicle) cultured neurons, DIV14, read-out: EC50 on mIPSCs) was ~200 nM and ~300 nM; in assay [2] (control (vehicle) cultured neurons, DIV14, read-out: EC50 on GABAAR-mediated Itonic), approximately 200 nM; in assay [2] (cultured neurons with EtOH exposure/withdrawal (60 mM, 30 min, 24 hr), read-out: EC50 on Itonic), ~200 nM and ~300 nM. In addition, the Itonic in assay [2] (0.3 μM DHM, cultured hippocampal neurons) was 21.0±2.3 pA; in assay [2] (1 μM DHM, cultured hippocampal neurons DIV13-14), 194.9±13.6 % of control. For the same compound, in assay [3], the “shift of the GABA concentration-response curve” value is reported as “left shift”.

(Values after US20130053435A1, “Methods of Treating Alcohol Intoxication, Alcohol Use Disorders and Alcohol Abuse Which Comprises the Administration of Dihydromyricetin” (priority 2011, published 2013).)
